Assay results: patent publication US20060173015A1, “Cyclohexyldiamines as selective alpha 1a/1d adrenoreceptor antagonists for the treatment of benign prostatic hypertrophy and lower urinary tract symptoms” (priority 2004, published 2006)

What was measured:
MAP = assay: Phenylephrine-induced MAP in a conscious canine model; format: in vivo; settings: conscious dog
Experimental: In-Vivo Evaluation of α1-Adrenergic Antagonists on IUP and MAP in a Conscious Canine Model
An anesthetized dog was fitted with a balloon catheter for the measurement of changes in prostatic IUP and with a number of implanted pressure transducers and telemetry transmitters for measuring MAP.
The pressor effects of challenge doses […] of the α-adrenergic agonist phenylephrine upon IUP and MAP were measured before and at various time points after a single dose (p.o.) of an α-adrenergic antagonist test compound (Compound 69) of the present invention.
Each treatment group was dosed with a test compound (0.1, 0.3, 1.0 and 3.0 mg/kg) in four separate experiments. The first challenge dose of phenylephrine for each treatment group was administered at the time of the test compound dose (time 0). The value for the first challenge dose represents an average of up to three challenge doses administered prior to time 0.
Subsequent challenge doses for all treatment groups were administered at 30 min. then one hour and two hours after time 0.
The final challenge doses for the 0.1 and 0.3 mg/kg groups were administered at four and six hours after time 0. The final challenge doses for the 1.0 mg/kg group were administered at four, six and eight hours after time 0. The final challenge doses for the 3.0 mg/kg group were administered at four, six, 12 and 24 hours after time 0.
A pressure transducer and telemetry transmitter (DSI TA11PA-D70 35 cm, Data Sciences International, St. Paul, Minn.) were implanted according to directions in “PA Device Surgical Manual” provided by the manufacturer.
A test compound was administered via the cephalic or saphenous vein using an appropriately sized IV catheter (Surflo, Terumo Medical Corporation or equivalent).
Prior to test compound administration, IUP and MAP responses to an individualized dose of phenylephrine (either 10 or 15 μg/kg IV, depending on the individual animal's response) was repeated 2 to 3 times to establish a baseline response. After test compound administration, the individualized phenylephrine dose was administered to each animal at predetermined intervals over a period of up to 24 hours.
Data for phenylephrine-induced changes in IUP and MAP were tabulated for each treatment group and each experiment. A mean value and standard deviation for the phenylephrine-induced changes to the effect of a test compound on IUP and MAP at each dose was calculated and tabulated for each treatment group over the length of the study.

α1d-AR = biological target: T1, α1d-AR (Homo sapiens, UniProt P25100); assay: α1-Adrenergic receptor radio-ligand (125I-HEAT) binding assay, α1d subtype; settings: COS-7 cell membranes, 125I-HEAT; read-out: Receptor Binding, Ki α1d-AR
T1 construct: expressed in transfected cells; host or cells: COS-7
T1 sequence (P25100 1-572): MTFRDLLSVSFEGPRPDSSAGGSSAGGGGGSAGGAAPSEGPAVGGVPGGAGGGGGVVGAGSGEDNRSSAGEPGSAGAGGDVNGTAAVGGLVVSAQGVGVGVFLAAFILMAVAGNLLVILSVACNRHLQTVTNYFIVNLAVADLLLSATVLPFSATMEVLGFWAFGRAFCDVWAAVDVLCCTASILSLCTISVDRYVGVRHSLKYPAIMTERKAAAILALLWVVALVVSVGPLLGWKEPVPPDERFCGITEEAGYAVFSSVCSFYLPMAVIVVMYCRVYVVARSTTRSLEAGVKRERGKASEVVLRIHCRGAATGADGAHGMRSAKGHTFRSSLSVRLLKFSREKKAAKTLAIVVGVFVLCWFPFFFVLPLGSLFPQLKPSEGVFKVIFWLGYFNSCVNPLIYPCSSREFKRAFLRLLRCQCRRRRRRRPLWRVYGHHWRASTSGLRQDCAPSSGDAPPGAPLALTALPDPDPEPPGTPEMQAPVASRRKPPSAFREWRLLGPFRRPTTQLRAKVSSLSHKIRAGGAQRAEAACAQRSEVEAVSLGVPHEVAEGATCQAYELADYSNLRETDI

COc1ccc(S(=O)(=O)N[C@H]2CC[C@@H](N3CCN(c4ccccc4OCC(F)(F)F)CC3)CC2)cc1OC [Cpd 69, 3,4-Dimethoxy-N-cis-(4-{4-[2-(2,2,2-trifluoro-ethoxy)-phenyl]-piperazin-1-yl}-cyclohexyl)-benzenesulfonamide]
MAP, normalized % of baseline (mean) (MAP; 0.1 mg/kg p.o., 0 hrs (baseline)): 100%
MAP, normalized % of baseline (mean) (MAP; 0.1 mg/kg p.o., 0.5 hrs after dose): 87.7%
MAP, normalized % of baseline (mean) (MAP; 0.1 mg/kg p.o., 1 hrs after dose): 93.3%
MAP, normalized % of baseline (mean) (MAP; 0.1 mg/kg p.o., 2 hrs after dose): 80.1%
MAP, normalized % of baseline (mean) (MAP; 0.1 mg/kg p.o., 4 hrs after dose): 89.7%
MAP, normalized % of baseline (mean) (MAP; 0.1 mg/kg p.o., 6 hrs after dose): 91.0%
MAP, normalized % of baseline (mean) (MAP; 0.3 mg/kg p.o., 0 hrs (baseline)): 100%
MAP, normalized % of baseline (mean) (MAP; 0.3 mg/kg p.o., 0.5 hrs after dose): 64.9%
MAP, normalized % of baseline (mean) (MAP; 0.3 mg/kg p.o., 1 hrs after dose): 59.3%
MAP, normalized % of baseline (mean) (MAP; 0.3 mg/kg p.o., 2 hrs after dose): 67.7%
MAP, normalized % of baseline (mean) (MAP; 0.3 mg/kg p.o., 4 hrs after dose): 85.6%
MAP, normalized % of baseline (mean) (MAP; 0.3 mg/kg p.o., 6 hrs after dose): 103.9%
MAP, normalized % of baseline (mean) (MAP; 1.0 mg/kg p.o., 0 hrs (baseline)): 100%
MAP, normalized % of baseline (mean) (MAP; 1.0 mg/kg p.o., 0.5 hrs after dose): 47.3%
MAP, normalized % of baseline (mean) (MAP; 1.0 mg/kg p.o., 1 hrs after dose): 37.2%
MAP, normalized % of baseline (mean) (MAP; 1.0 mg/kg p.o., 2 hrs after dose): 52.8%
MAP, normalized % of baseline (mean) (MAP; 1.0 mg/kg p.o., 4 hrs after dose): 61.3%
MAP, normalized % of baseline (mean) (MAP; 1.0 mg/kg p.o., 6 hrs after dose): 76.6%
MAP, normalized % of baseline (mean) (MAP; 1.0 mg/kg p.o., 8 hrs after dose): 87.8%
MAP, normalized % of baseline (mean) (MAP; 3.0 mg/kg p.o., 0 hrs (baseline)): 100%
MAP, normalized % of baseline (mean) (MAP; 3.0 mg/kg p.o., 0.5 hrs after dose): 43.4%
MAP, normalized % of baseline (mean) (MAP; 3.0 mg/kg p.o., 1 hrs after dose): 19.7%
MAP, normalized % of baseline (mean) (MAP; 3.0 mg/kg p.o., 2 hrs after dose): 21.7%
MAP, normalized % of baseline (mean) (MAP; 3.0 mg/kg p.o., 4 hrs after dose): 39.8%
MAP, normalized % of baseline (mean) (MAP; 3.0 mg/kg p.o., 6 hrs after dose): 50.2%
MAP, normalized % of baseline (mean) (MAP; 3.0 mg/kg p.o., 12 hrs after dose): 80.2%
MAP, normalized % of baseline (mean) (MAP; 3.0 mg/kg p.o., 24 hrs after dose): 95.1%
Ki (α1d-AR): 0.92 nM
